From patent US11447523B2, “Methods for reducing CD36 expression” (Cornell Research Foundation, Inc., priority 2005, dated 2022) come the findings set out here.

“Also recorded” adds a separate entry of the source.

The test system of experiment [1] is CD36. In words: oxLDL-induced CD36 mRNA expression in mouse peritoneal macrophages. It counts as cell-based. On the procedure:
CD36 expression is regulated at the transcriptional level by various cellular stimuli, including glucose and oxLDL. Macrophages were harvested from mice peritoneal cavity and culture overnight in the absence or presence of oxLDL (50 μg/ml) for 48 h.

The subject of experiment [2] is CD36. Description: CD36 immunostaining in isolated hearts after cold ischemic storage and warm reperfusion. Also on record: species or system guinea pig. The conditions noted are these: 1 nM SS-31 or 100 nM SS-20 in St. Thomas solution, 18 h at 4° C., 90 min reperfusion at 34° C. On the procedure:
Isolated guinea pig hearts were perfused with St. Thomas solution alone, or St. Thomas solution containing 1 nM SS-31 or 100 nM SS-20, for 3 min. and then stored in the same solution at 4° C. for 18 hours. After ischemic storage, hearts were reperfused with 34° C. Kreb-Henseleit solution for 90 min. Hearts freshly isolated from guinea pigs were used as controls.
The hearts were fixed in paraffin and sliced for immunostaining with an anti-CD36 rabbit polyclonal antibody. Two sections are shown for each treatment group. […] The “background” (FIGS. 12A and 12B) represents two sections from a normal non-ischemic heart that was not treated with the primary antibody. “Normal heart” (FIGS. 12C and 12D) represents two sections obtained from a non-ischemic heart.

Another experiment deals with diabetic mice. In words: Streptozotocin (STZ)-induced diabetic mice, renal damage. Format: in vivo, CD-1 mice. On the procedure: Streptozotocin (STZ) was used to induce diabetes in mice. Three groups of CD-1 mice were studied. Group I—no STZ treatment; Group II—STZ (50 mg/kg, ip) was given once a day for 5 d; Group III—STZ (50 mg/kg, ip) was given once a day for 5 d, and SS-31 (3 mg/kg, ip) was given once a day for 16 d. […] By week 3, blood glucose values were: Group I (10.6.noteq.0.27 mmol/L); Group II (24.5.noteq.1.15 mmol/L); Group III (21.3 1.48 mmol/L). Animals were sacrificed after 3 weeks and kidney tissues preserved for histopathology. Kidney sections were examined by Periodic Schiff (PAS) staining for renal tubular brush border.
In mice not treated with STZ, the renal brush border in the cortex was stained red with PAS (FIG. 16A, see white arrows).
Kidney sections were examined for apoptosis using the TUNEL assay. After deparaffinization, sections were incubated with deoxynucleotidyl transferase (Tdt) with digoxigenin-dNTP for 1 hour. The reaction was stopped with terminating buffer. A fluorescent anti-digoxigenin antibody was then applied.

The subject of experiment [3] is obstructed kidney after UUO. Description: Kidney damage after unilateral ureteral obstruction (HNE, TUNEL, ED1 macrophages, Masson's trichrome). Format: in vivo, Sprague-Dawley rats. The conditions noted are these: rats, SS-31 1 mg/kg ip one day before UUO and daily for 14 days. On the procedure: Rats were then killed, kidneys removed, embedded in paraffin and sectioned. Slides were incubated with anti-HNE rabbit IgG and a biotin-linked anti-rabbit IgG was used as secondary antibody. The slides were developed with DAB. Lipid peroxidation, which was increased by UUO, was reduced by SS-31 treatment (FIG. 8).
Rats were then killed, kidneys removed, embedded in paraffin and sectioned. To quantitate nuclei with fragmented DNA, the TUNEL assay were performed with in situ TUNEL kit (Intergen, Purchase, N.Y.). Slides were developed with DAB and counterstained with 10% hematoxylin.
Rats were treated with either saline (n=6) or SS-31 (1 mg/kg ip, n=6) one day prior to induction of UUO, and once a day for 14 days after UUO. Rats were then killed, kidneys removed, embedded in paraffin and sectioned. Slides were treated with monoclonal antibody for ED1 macrophage (1:75; Serotec). Horseradish-peroxidase-linked rabbit anti-mouse secondary antibody (Dako) was used for macrophage detection. Sections were then counterstained with 10% hematoxylin.
Rats were treated with either saline (n=6) or SS-31 (1 mg/kg ip, n=6) one day prior to induction of UUO, and once a day for 14 days after UUO. Rats were then killed, kidneys removed, embedded in paraffin and sectioned. Slides were stained with hematoxylin and eosin and Masson's trichome for interstitial fibrosis (blue stain).

Experiment [4] relates to CD36. In words: CD36 mRNA (real time PCR) in post-ischemic brain of wild-type mice. It counts as in vivo, mouse. The conditions noted are these: WT mice, SS-31 5 mg/kg ip at 0 and 6 h after 30 min ischemia. On the procedure: Wild-type mice were given saline vehicle (Veh, i.p., n=6) or SS-31 (5 mg/kg, i.p., n=6) at 0 and 6 h after 30 min ischemia, and CD36 mRNA levels were determined using real time PCR.
(In general: In qPCR the cycle at which signal appears reflects the starting amount.)

In experiment [5] the test system is CD36. Description: CD36 immunostaining on renal tubular cells after unilateral ureteral obstruction (UUO). It counts as in vivo, Sprague-Dawley rats. The following applies: rats, SS-31 1 mg/kg ip one day before UUO and daily for 14 days. On the procedure: UUO was performed in Sprague-Dawley rats. The rats were treated with saline (ip, n=6) or SS-31 (1 mg/kg ip, n=6) one day prior to induction of UUO, and once a day for 14 days after UUO. Rats were killed, kidneys removed, embedded in paraffin and sectioned. The slides were treated with the anti-CD36 polyclonal IgG (Santa Cruz #sc-9154; 1:100 with blocking serum) at room temperature for 1.5 hours. The slides were then incubated with the second antibody conjugated with biotin (anti-rabbit IgG-G1; ABC kit, PK-6101) at room temperature for 30 min. The slides were then treated with avidin, developed with DAB and counterstained with 10% hematoxylin. The contralateral unobstructed kidney served as the control for each animal.

In the case of D-Arg-2′6′Dmt-Lys-Phe-NH2 [SS-31], the “oxLDL-induced up-regulation of CD36 mRNA” value with CD36 [1] (SS-31 10 nM or 1 μM, oxLDL 50 μg/ml, 48 h) is listed as “abolished the up-regulation of CD36; also recorded: reduced oxLDL-induced CD36 mRNA expression”. Moreover, the “CD36 expression, peptide by itself” value in the experiment on CD36 [1] (SS-31 alone, without oxLDL) was “had no effect on CD36 expression”. Moreover, the “CD36 staining in stored hearts” value in the experiment on CD36 [2] is listed as “significantly reduced; also recorded: did not show the upregulation of CD36 expression”. For the same substance, the “blood glucose by week 3” value in the experiment with diabetic mice (Group III: STZ 50 mg/kg ip 5 d + SS-31 3 mg/kg ip daily 16 d (STZ alone 24.5, no STZ 10.6)) is listed as 21.3 mmol/L. In addition, in the experiment on diabetic mice (STZ mice, SS-31 3 mg/kg ip daily), the “effect on blood glucose (in words)” value is “without affecting blood glucose”. Besides, the “architecture of the proximal renal tubules” value in the experiment on diabetic mice (STZ mice, SS-31 3 mg/kg ip daily, 3 weeks) was “architecture of the proximal renal tubules was preserved”. The “apoptotic cells in proximal tubule (TUNEL)” value with diabetic mice (STZ mice, SS-31 3 mg/kg ip daily, 3 weeks, 3 mg/kg) is “dramatically reduced apoptotic cells in the proximal tubule; also recorded: inhibit tubular cell apoptosis; also recorded: significantly reduced”. Also, in experiment [3], the tubular dilation result is “Tubular dilation was also observed”. In experiment [3] (P<0.001, 1 mg/kg), the “number of apoptotic cells (TUNEL) in obstructed kidney” value is “significantly reduced; also recorded: reduced tubular cell apoptosis”. For the same substance, in experiment [3] (P<0.05, 1 mg/kg), the “interstitial fibrosis in obstructed kidney” value is reported as “significantly less fibrosis; also recorded: reduced interstitial fibrosis” and the “macrophage infiltration (ED1) in obstructed kidney” value was “significantly reduced; also recorded: reduced macrophage infiltration”. Moreover, the “lipid peroxidation (HNE stain) in obstructed kidney” value in experiment [3] (vs saline, 1 mg/kg) is “significantly less HNE stain; also recorded: reduces lipid peroxidation”. Moreover, the “CD36 mRNA in the ipsilateral brain” value with CD36 [4] is “significantly reduced; also recorded: reduced CD36 mRNA expression”. Also, the “CD36 expression on tubular cells of obstructed kidney” value in the experiment on CD36 [5] is recorded as “significant reduction in CD36 expression; also recorded: suppresses the upregulation of CD36; also recorded: decreases CD36 expression”.
